Source: patent US8846746B2, “Pyrazole compound and pharmaceutical use thereof” (Japan Tobacco Inc., priority 2011, dated 2014)

Molecular target: human SGLT1 (Homo sapiens (Human), UniProt P13866)
Experiment: SGLT1 inhibitory activity: 14C-AMG uptake into CHO-K1 cell line stably expressing human SGLT1
Type: cell-based
Conditions: for IC50: 14C-AMG uptake; for inhibition at 0.1 µM: CHO-K1, at 0.1 uM
Method in brief: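 CHO-K1 cells stably expressing human SGLT1 were pre-incubated 20 min in Na(−) buffer (pH 7.4). Test compound in Na(+) buffer with BSA was added with ¹⁴C-AMG (8 kBq) plus unlabelled AMG (2 mM in the added solution) for 1 h at 37 °C.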

[1] = CHO-K1 cells expressing human SGLT1
[2] = CHO-K1 cells stably expressing human SGLT1

Chain of human SGLT1 (P13866 whole entry): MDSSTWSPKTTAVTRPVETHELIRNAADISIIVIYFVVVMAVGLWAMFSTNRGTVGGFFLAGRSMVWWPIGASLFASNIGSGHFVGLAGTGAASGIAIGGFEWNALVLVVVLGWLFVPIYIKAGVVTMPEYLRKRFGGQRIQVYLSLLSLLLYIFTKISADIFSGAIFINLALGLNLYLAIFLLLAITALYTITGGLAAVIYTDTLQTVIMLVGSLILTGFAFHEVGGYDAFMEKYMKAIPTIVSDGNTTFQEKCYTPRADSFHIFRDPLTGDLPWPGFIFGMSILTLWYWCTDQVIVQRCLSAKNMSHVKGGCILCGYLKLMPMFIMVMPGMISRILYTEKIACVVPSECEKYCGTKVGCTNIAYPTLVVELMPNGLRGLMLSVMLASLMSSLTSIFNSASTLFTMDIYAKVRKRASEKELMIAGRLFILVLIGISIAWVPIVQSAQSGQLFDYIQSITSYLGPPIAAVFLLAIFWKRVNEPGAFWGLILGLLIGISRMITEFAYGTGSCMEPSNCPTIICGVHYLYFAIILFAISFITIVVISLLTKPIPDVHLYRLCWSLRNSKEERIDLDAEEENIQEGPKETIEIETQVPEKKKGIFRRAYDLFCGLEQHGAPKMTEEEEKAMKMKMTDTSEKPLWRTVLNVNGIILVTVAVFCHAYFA

Row | IC50 [1] | IC50 [2] | SMILES | further results
1 | 17 nM |  | O=C1C[C@@H](C(=O)Nc2cc(-c3cccc(OCC(F)(F)F)c3)n(-c3ccc(Cl)cc3)n2)CN1 [Example 159] | 
2 | 2.2 nM |  | CCCc1cccc(-c2cc(NC(=O)[C@H]3CNC(=O)C3)nn2-c2ccccc2C)c1 [Example 102] | 
3 |  | 3.4 nM | COCCOc1ccc(F)c(-n2nc(NC(=O)[C@@H]3CNC(=O)C3)cc2-c2cccc(COCC(F)(F)F)c2)c1 [Example 462] | 
4 |  | 21 nM | CCCc1cccc(-c2cc(NC(=O)[C@@H]3CNC(=O)C3)nn2-c2ccccc2OC(C)C)c1 [Example 378] | 
5 |  | 15 nM | COc1cccc(-n2nc(NC(=O)[C@@H]3CNC(=O)C3)cc2-c2cccc(OC(F)(F)F)c2)c1 [Example 442] | 
6 |  | 39 nM | CCCc1cccc(-c2cc(NC(=O)[C@@H]3CNC(=O)C3)nn2-c2ccccc2C(C)C)c1 [Example 359] | 
7 | 19 nM |  | CCC(F)(F)c1cccc(-c2cc(NC(=O)C3CCC(=O)NC3)nn2-c2ccccc2)c1 (single isomer, unassigned) [Example 151] | 
8 |  | 14 nM | CC(C)(OCc1cccc(-c2cc(NC(=O)[C@@H]3CNC(=O)C3)nn2-c2ccccc2)c1)C(F)(F)F [Example 352] | 
9 |  | 33 nM | CC(C)OCc1cccc(-c2cc(NC(=O)[C@@H]3CNC(=O)C3)nn2-c2ccccc2)c1 [Example 299] | 
10 |  | 25 nM | CC[C@@H](C)OCc1cccc(-c2cc(NC(=O)[C@@H]3CNC(=O)C3)nn2-c2ccccc2)c1 [Example 350] | 
11 |  |  | O=C1C[C@H](C(=O)Nc2cc(-c3cccc(S(=O)(=O)CC(F)(F)F)c3)n(-c3ccccc3)n2)CN1 [Example 550] | inhibition at 0.1 µM: 29%
12 | 80 nM |  | CCCc1cc(-c2cc(NC(=O)[C@@H]3CNC(=O)C3)nn2-c2ccccc2)ccc1F [Example 51] | 
13 | 22 nM |  | CCCc1cc(-c2cc(NC(=O)[C@H]3CNC(=O)C3)nn2-c2ccccc2)ccc1F [Example 50] | 
14 |  | 15 nM | CCCOC(C)(C)c1cccc(-c2cc(NC(=O)[C@@H]3CNC(=O)C3)nn2-c2ccccc2)c1 [Example 326] | 
15 |  | 2.7 nM | CCCc1cccc(-c2cc(NC(=O)[C@H]3CNC(=O)N3CCOC)nn2-c2ccccc2)c1 [Example 346] | 
16 |  | 84 nM | C[C@@H](OCc1cc(Cl)cc(-c2cc(NC(=O)[C@@H]3CNC(=O)C3)nn2C2CCOCC2)c1)C(F)(F)F [Example 584] | 
17 |  |  | CC(C)(C)S(=O)(=O)c1cccc(-c2cc(NC(=O)[C@@H]3CNC(=O)C3)nn2-c2ccccc2)c1 [Example 569] | inhibition at 0.1 µM: 29%
18 |  |  | O=C1C[C@H](C(=O)Nc2cc(-c3cccc(COCC(F)(F)F)c3)n(-c3cc(Cl)ccc3F)n2)CN1 [Example 503] | inhibition at 0.1 µM: -17%
19 |  | 13 nM | O=C1C[C@H](C(=O)Nc2cc(-c3cc(F)cc(COC(C(F)(F)F)C(F)(F)F)c3)n(-c3ccccc3)n2)CN1 [Example 585] | 
20 | 95 nM |  | CCOc1cccc(-c2cc(NC(=O)[C@H]3CNC(=O)C3)nn2-c2ccccc2)c1 [Example 30] | 
21 |  | 47 nM | COc1cc(-n2nc(NC(=O)[C@@H]3CNC(=O)C3)cc2-c2cccc(OC(F)(F)F)c2)ccc1F [Example 420] | 
22 |  | 31 nM | CC(C)(OCc1cc(F)cc(-c2cc(NC(=O)[C@H]3CNC(=O)N3)nn2-c2ccccc2)c1)C(F)(F)F [Example 601] | 
23 | 15 nM |  | O=C1CCC(C(=O)Nc2cc(-c3cccc(OC(F)(F)F)c3)n(-c3ccccc3F)n2)CN1 (single isomer, unassigned) [Example 167] | 
24 |  | 6.75 nM | CCCOc1cccc(-n2nc(NC(=O)[C@@H]3CNC(=O)C3)cc2-c2cccc(CCC)c2)c1 [Example 380] | 
25 |  | 8.3 nM | CCOc1ccc(F)c(-n2nc(NC(=O)[C@@H]3CNC(=O)C3)cc2-c2cccc(OC(F)(F)F)c2)c1 [Example 516] | 
26 | 3.5 nM |  | CC(C)Cc1cccc(-c2cc(NC(=O)[C@@H]3CNC(=O)C3)nn2-c2ccccc2)c1 [Example 71] | 
27 |  | 60 nM | C[C@@H](OCc1cc(Cl)cc(-c2cc(NC(=O)[C@H]3CNC(=O)N3)nn2-c2ccccc2)c1)C(F)(F)F [Example 597] | 
28 | 18 nM |  | O=C1C[C@@H](C(=O)Nc2cc(-c3cccc(C(F)(F)F)c3)n(-c3ccc(F)cc3)n2)CN1 [Example 204] | 
